# Data: patent US6791014B2, “Use of HPPD inhibitors as selection agents in plant transformation” (Aventis Cropscience, S.A., priority 2000, dated 2004)
# Experiments:
# Assay type in all cases: cell-based, soya bean (Glycine max (L.) Merrill)
# [1] = system: soya bean embryogenic tissues; test: Bleaching and growth of soya bean embryogenic tissues on medium with HPPD inhibitor; conditions: tissues transferred for selection on isoxaflutole, D20 medium, 2 mg/l
# Description: The same selection method was developed for the HPPD inhibitors, with a D20 medium comprising 2 mg/l of isoxaflutole or 0.5 to 5 mg/l of diketonitriles. The gene for tolerance to HPPD inhibitors which was used as a selection marker is pCH73 or pCH94 represented in FIG. 1. 10 to 15 days prior to the bombardment, the isoxaflutole or the diketonitriles are introduced into the D20 medium, at the abovementioned concentrations, so as to bleach the tissues. After bombardment, the tissues are placed directly in the same D20 medium comprising […] of isoxaflutole or diketonitrile (between 0.5 and 5 mg/l) and transferred into fresh medium every 15 days. After 4 transfers onto the isoxaflutole. green calluses are identified and amplified as described in Example 1. The time required for producing calluses of cells which are competent for the bombardment is 3 and a half months. The selection of the transformed cells (green calluses) occurs approximately 6 months after the initiation of the calluses for the transformation. […] This is due to the fact that the absence of carotenoids, of chlorophyll and of tocopherols is […] to the growth of tissues.
# [2] = system: soya bean proliferative embryogenic tissues; test: Transformation of soya bean embryogenic tissues by particle bombardment, HPPD inhibitor selection on D20 medium (green calluses); conditions: bleaching after bombardment
# [3] = system: soya bean proliferative embryogenic tissues; test: as above; conditions: bleaching before bombardment
# Text: The technology used for transforming soya bean has been described by Santarem & Finer: Transformation of soya bean (Glycine max (L.) Merrill) using proliferative embryogenic tissue maintained on semi-solid medium. In Vitro Cell. Dev. Biol. Plant 35 451-455, 1999. It comprises the steps hereinafter.
# Immature zygotic embryos (from 3 to 4 mm) are aseptically dissected and placed with the adaxial side upwards in a medium comprising 2.4D (D40).
# After culturing for 3 weeks in D40 medium, the cotyledons are transferred onto a D20 medium which comprises essentially the same elements as the D40 medium, with the exception of the 2.4D concentration, which is decreased to […], and the sucrose concentration, which is decreased from 60 g/l to 30 g/l, at pH 5.7.
# On this medium, the somatic embryos begin to proliferate in the form of compact aggregates or clumps. The embryogenic clumps are then transferred every two weeks onto a new D20 medium in order to increase the production of tissues. Five or six transfers (approximately 3 months) onto this medium are necessary in order to optimize their competence at transformation. The use of embryogenic tissues which are at an earlier stage produces much poorer results.
# Particle bombardment is used for transforming the embryogenic tissues.
# Particle preparation: flnctionalized tungsten (M17) particles are prepared according to U.S. Pat. No. 6,068,980. The particles are functionalized by grafting aminated silicones as the vectorization element, and washed in absolute ethanol. 2.5 mg of particles in ethanol are mixed with 3 μg of DNA. After precipitation, the particles are pipetted and used for two shots with a particle gun of the PIG type described by Finer, Vain, Lones and McMullen in: Development of the Particle Inflow Gun for DNA delivery to plant cells. Plant Cell Rep. 11: 323-328, 1992.
# Before the bombardment, the tissues are dried under vacuum under a laminar-flow hood for 5 to 10 min, and then placed between two 500 μm screens and bombarded twice.
# The same selection method was developed for the HPPD inhibitors, with a D20 medium comprising 2 mg/l of isoxaflutole or 0.5 to 5 mg/l of diketonitriles. The gene for tolerance to HPPD inhibitors which was used as a selection marker is pCH73 or pCH94 represented in FIG. 1.
# In order to avoid handling tissues and to gain time, the bombarded calluses are placed on sterile gauze screen fixed with two metal rings which enable direct contact between the embryogenic tissues and the solid medium. The gauze screens are transferred onto fresh media every 15 days until green calluses are observed. It is understood that the principle of callus transfer described above is not limited to soya bean calluses and to selection with hygromycin, but may be used for any method for culturing tissues and cells suspensions which requires frequent changing of culture medium.
# 10 to 15 days prior to the bombardment, the isoxaflutole or the diketonitriles are introduced into the D20 medium, at the abovementioned concentrations, so as to bleach the tissues. After bombardment, the tissues are placed directly in the same D20 medium comprising […] of isoxaflutole or diketonitrile (between 0.5 and 5 mg/l) and transferred into fresh medium every 15 days. After 4 transfers onto the isoxaflutole. green calluses are identified and amplified as described in Example 1. The time required for producing calluses of cells which are competent for the bombardment is 3 and a half months. The selection of the transformed cells (green calluses) occurs approximately 6 months after the initiation of the calluses for the transformation.
# [4] = system: soya bean proliferative embryogenic tissues; test: Transformation of soya bean embryogenic tissues by particle bombardment, HPPD inhibitor selection on FNL medium (green calluses); conditions: for mean number of green calluses selected per transformation trial: bleached tissues according to the invention, pooled over both plasmids
# Text: In order to improve the selection process according to the invention, an attempt was made to decrease the number of tissue transfers and the time required for producing calluses of competent cells and green calluses selected after bombardment. To this effect, the D20 medium previously used was replaced with a modified FNL medium which allows rapid proliferation of the tissues. The FNL medium has been described by Samoylov, Tucker, Thibaud-Nissen & Parrott in: A liquid-medium-based protocol for rapid regeneration from embryogenic soya bean cultures: Plant Cell Rep, 18: 49-54, 1998. This medium makes it possible to produce tissues ready for bombardment more rapidly, greater embryogeny and shorter transfer cycles. Composition of the FNL medium: Na2EDTA: 37.24 mg/l; FeSO4, 7H2O: 27.84 mg/l; MgSO4, 7H2O: 370 mg/l; MnSO4. H2O: 16.9 mg/l; ZnSO4, H2O: 8.6 mg/l; CuSO4. 7H25O: 0.025 mg/l; CaCl2. 2H2O: 440 mg/l; KI: 0.83 mg/l; CoCl2. 6H2O: 0.025 mg/l; KH2PO4: 170 mg/l; H3BO3: 6.2 mg/l; Na2MoO4. 2H2O: 0.25 mg/l; myo-inositol: 100 mg/l; nicotinic acid: 1 mg/l; pyridoxine-HCl: 1 mg/l; thiamine-HCl: 10 mg/l; (NH4)2SO4: 460 mg/l; KNO3: 2820 mg/l; asparagine: 670 mg/l; 1% sucrose; 2.4-D: 10 mg/l; 0.3% […]; pH 5.7. […] The bombardment of tissues bleached with isoxaflutol according to the invention requires only one transfer of calluses before the selected green calluses are produced, against 4 when using the D20 medium. The time required for producing calluses from cells which are competent for the bombardment is 2 months, the transformed green calluses being selected approximately 3 months after the initiation of the calluses for transformation.
# [5] = bleaching before bombardment, attempt 1
# [6] = bleaching before bombardment, attempt 2
# [7] = bleaching before bombardment, attempt 3
Molecule,bleaching of the tissues [1],inhibition of growth of the tissues [1],number of green calluses identified ([2]; attempt 1),number of green calluses identified ([2]; attempt 2),number of green calluses identified ([2]; attempt 3),number of green calluses identified ([3]; attempt 1),number of green calluses identified ([3]; attempt 2),number of green calluses identified ([3]; attempt 3),mean number of green calluses selected per transformation trial [4] [per shot],"number of green calluses selected ([4]; bleaching after bombardment, attempt 1)","number of green calluses selected ([4]; bleaching after bombardment, attempt 2)","number of green calluses selected [4, 5]","number of green calluses selected [4, 6]","number of green calluses selected [4, 7]","number of green calluses selected ([4]; bleaching before bombardment, attempt 4)"
CS(=O)(=O)c1cc(C(F)(F)F)ccc1C(=O)c1cnoc1C1CC1 [isoxaflutole],rapidly bleached,without any inhibition of growth being observed,–,–,–,–,–,–,–,–,–,–,–,–,–
"pCH73: plasmid carrying gene for tolerance to HPPD inhibitors: sunflower RuBisCo ssu promoter, optimized transit peptide, HPPDW336, NOS terminator; SEQ ID NO 1",–,–,0,0,0.25,0,0.5,0.25,1,0.25,0,1,1.5,0.33,–
"pCH94: plasmid carrying gene for tolerance to HPPD inhibitors: Arabidopsis histone promoter, TEV enhancer, optimized transit peptide, HPPDW336, NOS terminator; SEQ ID NO 2",–,–,0.67,0.33,0.25,0.67,1,2,1,–,–,1,1,0.33,1.5
